How the values were obtained:
Experiment in all cases: relative viability (nuclei count vs DMSO), 5 days (fraction); higher = more cells survive
kb NB 142-70 + OSI-027 = compound: C1CSC2=C(C(=O)N1)SC3=C2C=C(C=C3)O [kb NB 142-70] + COc1cccc2cc(-c3nc([C@H]4CC[C@H](C(=O)O)CC4)n4ncnc(N)c34)[nH]c12 [OSI-027] (partner 0.5 µM)
Summary of the method: (§1)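 Relative viability was taken as the ratio of nuclei in treated wells to nuclei in vehicle wells. Lung cancer cell lines in 1536-well plates received compounds by pin tool one day after seeding, either one drug alone or a fixed anchor-drug dose plus five library-drug doses (not always all listed) in √10 steps. Nuclei were counted on 4× images after 5 days of treatment, and values are medians of duplicate plates.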

[1] = compound: NCC(=O)Nc1ccc(-n2nc(C(F)(F)F)cc2-c2ccc3c(ccc4ccccc43)c2)cc1 + CCNC(=O)c1noc(-c2cc(C(C)C)c(O)cc2O)c1-c1ccc(CN2CCOCC2)cc1 [Luminespib] (partner 0.01 µM)
Summary of the method: as §1

[2] = compound: NCC(=O)Nc1ccc(-n2nc(C(F)(F)F)cc2-c2ccc3c(ccc4ccccc43)c2)cc1 + Cc1nc(NC(=O)N2CCC[C@H]2C(N)=O)sc1-c1ccnc(C(C)(C)C(F)(F)F)c1 [Alpelisib] (partner 2 µM)
Summary of the method: as §1

[3] = compound: C1CSC2=C(C(=O)N1)SC3=C2C=C(C=C3)O [kb NB 142-70] + N=C(N)NC(=N)NCCc1ccccc1 [Phenformin] (partner 250 µM)
Summary of the method: as §1

kb NB 142-70 + Lapatinib = compound: C1CSC2=C(C(=O)N1)SC3=C2C=C(C=C3)O [kb NB 142-70] + CS(=O)(=O)CCNCc1ccc(-c2ccc3ncnc(Nc4ccc(OCc5cccc(F)c5)c(Cl)c4)c3c2)o1 [Lapatinib] (partner 2 µM)
Summary of the method: as §1

Cell Line	relative viability (kb NB 142-70 + OSI-027; first compound 0.1 µM)	relative viability (kb NB 142-70 + OSI-027; first compound 1 µM)	relative viability (kb NB 142-70 + OSI-027; first compound 3.162 µM)	relative viability ([1]; first compound 0.02 µM)	relative viability ([1]; first compound 0.06325 µM)	relative viability ([1]; first compound 0.2 µM)	relative viability ([1]; first compound 0.6325 µM)	relative viability ([1]; first compound 2 µM)	relative viability ([2]; first compound 0.02 µM)	relative viability ([2]; first compound 0.06325 µM)	relative viability ([2]; first compound 0.2 µM)	relative viability ([2]; first compound 0.6325 µM)	relative viability ([2]; first compound 2 µM)	relative viability ([3]; first compound 0.1 µM)	relative viability ([3]; first compound 1 µM)	relative viability ([3]; first compound 3.162 µM)	relative viability (kb NB 142-70 + Lapatinib; first compound 0.1 µM)	relative viability (kb NB 142-70 + Lapatinib; first compound 1 µM)	relative viability (kb NB 142-70 + Lapatinib; first compound 3.162 µM)
NCI-H460	0.677	0.576	0.315	0.032	0.0402	0.0319	0.0282	0.0345	0.576	0.425	0.486	0.491	0.449	0.55	0.596	0.347	1.02	1.03	0.48
NCI-H650	0.535	0.519	0.52	0.725	0.878	0.867	0.734	0.973	0.882	1.24	1.3	1.13	1.37	0.462	0.465	0.429	1.05	1.17	0.657
NCI-H661	0.723	0.717	0.61	0.932	0.907	0.899	0.925	0.906	0.82	0.626	0.693	0.758	0.94	0.286	0.263	0.247	0.511	0.478	0.492
NCI-H1793	0.34	0.311	0.294	0.398	0.155	0.18	0.192	0.213	0.682	0.734	0.72	0.666	0.736	0.285	0.406	0.42	0.57	0.749	0.861
NCI-H1734	0.584	0.509	0.396	0.201	0.213	0.181	0.24	0.187	0.748	0.759	0.751	0.671	0.775	0.371	0.346	0.267	1.06	0.895	0.523
LXF-289	0.737	0.695	0.681	0.686	0.67	0.633	0.637	0.702	1.08	1.08	1.09	1.06	1.01	0.526	0.526	0.457	0.917	0.909	0.94
H3255	0.606	0.603	0.554	0.781	1.03	0.9	0.777	0.984	0.782	0.651	0.746	0.811	0.731	0.358	0.362	0.371	0.271	0.195	0.234
201T	0.723	0.714	0.653	1.1	1.07	1.11	1.03	1.06	1.08	1.05	1.04	1	1.05	0.453	0.418	0.492	1.05	1.06	1.06

— the supplement of paper PMC10307832
